Columns and labels:
[1] = test system: antibodies in sera from SARS patients (sera 1a, 1b, 2, 6, 37, 62, London, SARS-yellow, SARS-green); assay type: binding, human; parameters: Binding of serum 6 to linear peptides of protein X1 of SARS-CoV Urbani / Binding of serum 37 to linear peptides of protein X1 of SARS-CoV Urbani / Binding of serum 6 to looped/cyclic peptide (PEPSCAN-ELISA) / Binding of serum 37 to looped/cyclic peptide (PEPSCAN-ELISA) / Binding of serum 37 to looped/cyclic peptides of protein X1 of SARS-CoV Urbani / Binding of serum 6 to linear peptides of protein X2 / Binding of serum 37 to linear peptides of protein X2 / Binding of serum 37 to looped/cyclic peptides of protein X2 of SARS-CoV Urbani / Binding of serum 6 to linear peptides of protein M of SARS-CoV Urbani / Binding of serum 37 to linear peptides of protein M of SARS-CoV Urbani / Binding of serum 6 to looped/cyclic peptides of protein M of SARS-CoV Urbani / Binding of serum 37 to looped/cyclic peptides of protein M of SARS-CoV Urbani / Binding of serum 6 to linear peptides of protein X3 of SARS-CoV Urbani / Binding of serum 37 to linear peptides of protein X3 of SARS-CoV Urbani / Binding of serum 37 to looped/cyclic peptides of protein X3 of SARS-CoV Urbani / Binding of serum 6 to linear peptides of protein X4 of SARS-CoV Urbani / Binding of serum 37 to linear peptides of protein X4 of SARS-CoV Urbani / Binding of serum 37 to looped/cyclic peptides of protein X4 of SARS-CoV Urbani / Binding of serum 6 to linear peptides of protein X5 of SARS-CoV Urbani / Binding of serum 37 to linear peptides of protein X5 of SARS-CoV Urbani / Binding of serum 37 to looped/cyclic peptides of protein X5 of SARS-CoV Urbani / Binding of serum 6 to linear peptides of protein N of SARS-CoV Urbani / Binding of serum 37 to linear peptides of protein N of SARS-CoV Urbani / Binding of serum 6 to linear peptide (PEPSCAN-ELISA) / Binding of serum 1a to looped/cyclic peptides of protein N of SARS-CoV Urbani / Binding of serum 1b to looped/cyclic peptides of protein N of SARS-CoV Urbani / Binding of serum 2 to looped/cyclic peptides of protein N of SARS-CoV Urbani / Binding of serum 6 to looped/cyclic peptides of protein N of SARS-CoV Urbani / Binding of serum 37 to looped/cyclic peptides of protein N of SARS-CoV Urbani / Binding of serum 62 to looped/cyclic peptides of protein N of SARS-CoV Urbani / Binding of serum London to looped/cyclic peptides of protein N of SARS-CoV Urbani / Binding of serum SARS-green to looped/cyclic peptides of protein N of SARS-CoV Urbani: unit not given here
[2] = test system: recombinant human anti-SARS-CoV antibody 03-018; assay type: binding; parameters: Binding of antibody 03-018 to linear peptides of the N protein of SARS-CoV Urbani / Binding of antibody 03-018 to looped/cyclic peptides of the N protein of SARS-CoV Urbani: unit not given here
[3] = test system: control sera (pooled serum of ten healthy LUMC hospital workers; commercial negative donor pooled serum from the Dutch bloodbank); assay type: binding, human; parameters: Binding of Control serum LUMC to linear peptides / Binding of Control serum Blood-bank to linear peptides / Binding of Control serum LUMC to looped peptides / Binding of Control Serum Blood-Bank to Looped peptides / Binding of Control serum LUMC to linear peptides of the protein M of SARS-CoV Urbani / Binding of Control serum Blood-bank to linear peptides of the protein M of SARS-CoV Urbani / Binding of Control serum LUMC to looped peptides of the protein M of SARS-CoV Urbani / Binding of Control Serum Blood-Bank to Looped peptides of the protein M of SARS-CoV Urbani: unit not given here
[4] = test system: rabbit serum obtained by immunizing a rabbit with the SARS-CoV strain Frankfurt 1; assay type: binding; parameters: Binding of a rabbit serum to linear peptides / Binding of a rabbit serum to looped peptides / Rabbit serum linear peptides / Rabbit serum looped peptides / Binding of a rabbit serum to linear peptides of protein N of SARS-CoV Urbani (Rabbit serum linear peptides) / Binding of a rabbit serum to looped/cyclic peptides of protein N of SARS-CoV Urbani (Rabbit serum looped peptides): unit not given here

Sequence: FGGPTDSTDNNQNGG
- Binding of serum 1a to linear peptides of protein N of SARS-CoV Urbani [1]: 0.3
- Binding of serum 1a to looped/cyclic peptides of protein N of SARS-CoV Urbani [1]: 0.2
- Binding of serum 1b to linear peptides of protein N of SARS-CoV Urbani [1]: 0.1
- Binding of serum 1b to looped/cyclic peptides of protein N of SARS-CoV Urbani [1]: 0.1
- Binding of serum 2 to linear peptides of protein N of SARS-CoV Urbani [1]: 0.1
- Binding of serum 2 to looped/cyclic peptides of protein N of SARS-CoV Urbani [1]: 0.2
- Binding of serum 6 to linear peptides of protein N of SARS-CoV Urbani [1]: 0.1
- Binding of serum 6 to looped/cyclic peptides of protein N of SARS-CoV Urbani [1]: 0.1
- Binding of serum 37 to linear peptides of protein N of SARS-CoV Urbani [1]: 0.6
- Binding of serum 37 to looped/cyclic peptides of protein N of SARS-CoV Urbani [1]: 0.4
- Binding of serum 62 to linear peptides of protein N of SARS-CoV Urbani [1]: 0.5
- Binding of serum 62 to looped/cyclic peptides of protein N of SARS-CoV Urbani [1]: 0.2
- Binding of serum London to linear peptides of protein N of SARS-CoV Urbani [1]: 0.5
- Binding of serum London to looped/cyclic peptides of protein N of SARS-CoV Urbani [1]: 0.2
- Binding of serum SARS-green to linear peptides of protein N of SARS-CoV Urbani [1]: 0.0
- Binding of serum SARS-green to looped/cyclic peptides of protein N of SARS-CoV Urbani [1]: 0.3
- Binding of serum SARS-yellow to linear peptides of protein N of SARS-CoV Urbani [1]: 0.5
- Binding of serum SARS-yellow to looped/cyclic peptides of protein N of SARS-CoV Urbani [1]: 0.1
- Binding of antibody 03-018 to linear peptides of the N protein of SARS-CoV Urbani [2]: 0.1
- Binding of antibody 03-018 to looped/cyclic peptides of the N protein of SARS-CoV Urbani [2]: 0.2
- Binding of Control Serum Blood-Bank to Looped peptides [3]: 0.4
- Binding of Control serum Blood-bank to linear peptides [3]: 0.6
- Binding of Control serum LUMC to linear peptides [3]: 0.5
- Binding of Control serum LUMC to looped peptides [3]: 0.4
- Binding of a rabbit serum to linear peptides of protein N of SARS-CoV Urbani (Rabbit serum linear peptides) [4]: 0.0
- Binding of a rabbit serum to looped/cyclic peptides of protein N of SARS-CoV Urbani (Rabbit serum looped peptides) [4]: 0.1

Sequence: GYYRRATRRVRGGDG
- Binding of serum 1a to linear peptides of protein N of SARS-CoV Urbani [1]: 0.3
- Binding of serum 1a to looped/cyclic peptides of protein N of SARS-CoV Urbani [1]: 0.3
- Binding of serum 1b to linear peptides of protein N of SARS-CoV Urbani [1]: 0.1
- Binding of serum 1b to looped/cyclic peptides of protein N of SARS-CoV Urbani [1]: 0.1
- Binding of serum 2 to linear peptides of protein N of SARS-CoV Urbani [1]: 0.1
- Binding of serum 2 to looped/cyclic peptides of protein N of SARS-CoV Urbani [1]: 0.4
- Binding of serum 6 to linear peptides of protein N of SARS-CoV Urbani [1]: 0.2
- Binding of serum 6 to looped/cyclic peptides of protein N of SARS-CoV Urbani [1]: 0.2
- Binding of serum 37 to linear peptides of protein N of SARS-CoV Urbani [1]: 0.3
- Binding of serum 37 to looped/cyclic peptides of protein N of SARS-CoV Urbani [1]: 0.5
- Binding of serum 62 to linear peptides of protein N of SARS-CoV Urbani [1]: 0.4
- Binding of serum 62 to looped/cyclic peptides of protein N of SARS-CoV Urbani [1]: 0.4
- Binding of serum London to linear peptides of protein N of SARS-CoV Urbani [1]: 0.4
- Binding of serum London to looped/cyclic peptides of protein N of SARS-CoV Urbani [1]: 0.3
- Binding of serum SARS-green to linear peptides of protein N of SARS-CoV Urbani [1]: 0.2
- Binding of serum SARS-green to looped/cyclic peptides of protein N of SARS-CoV Urbani [1]: 0.2
- Binding of serum SARS-yellow to linear peptides of protein N of SARS-CoV Urbani [1]: 0.6
- Binding of serum SARS-yellow to looped/cyclic peptides of protein N of SARS-CoV Urbani [1]: 0.2
- Binding of antibody 03-018 to linear peptides of the N protein of SARS-CoV Urbani [2]: 0.1
- Binding of antibody 03-018 to looped/cyclic peptides of the N protein of SARS-CoV Urbani [2]: 0.2
- Binding of Control Serum Blood-Bank to Looped peptides [3]: 0.6
- Binding of Control serum Blood-bank to linear peptides [3]: 0.6
- Binding of Control serum LUMC to linear peptides [3]: 0.6
- Binding of Control serum LUMC to looped peptides [3]: 0.5
- Recognition of the peptide by the rabbit serum [4]: recognized

Sequence: SKKPRQKRTATKQYN
- Binding of serum 1a to linear peptide (PEPSCAN-ELISA) [1]: 0.2
- Binding of serum 1a to looped/cyclic peptides of protein N of SARS-CoV Urbani [1]: 0.3
- Binding of serum 1b to linear peptide (PEPSCAN-ELISA) [1]: 0.1
- Binding of serum 1b to looped/cyclic peptides of protein N of SARS-CoV Urbani [1]: 0.1
- Binding of serum 2 to linear peptide (PEPSCAN-ELISA) [1]: 0.3
- Binding of serum 2 to looped/cyclic peptides of protein N of SARS-CoV Urbani [1]: 0.4
- Binding of serum 6 to linear peptide (PEPSCAN-ELISA) [1]: 0.2
- Binding of serum 6 to looped/cyclic peptides of protein N of SARS-CoV Urbani [1]: 0.3
- Binding of serum 37 to linear peptide (PEPSCAN-ELISA) [1]: 0.6
- Binding of serum 37 to looped/cyclic peptides of protein N of SARS-CoV Urbani [1]: 0.6
- Binding of serum 62 to linear peptide (PEPSCAN-ELISA) [1]: 0.7
- Binding of serum 62 to looped/cyclic peptides of protein N of SARS-CoV Urbani [1]: 0.6
- Binding of serum London to linear peptide (PEPSCAN-ELISA) [1]: 0.5
- Binding of serum London to looped/cyclic peptides of protein N of SARS-CoV Urbani [1]: 0.5
- Binding of serum SARS-green to linear peptide (PEPSCAN-ELISA) [1]: 0.1
- Binding of serum SARS-green to looped/cyclic peptides of protein N of SARS-CoV Urbani [1]: 0.1
- Binding of serum SARS-yellow to linear peptide (PEPSCAN-ELISA) [1]: 0.4
- Binding of serum SARS-yellow to looped/cyclic peptides of protein N of SARS-CoV Urbani [1]: 0.3
- Binding of antibody 03-018 to linear peptides of the N protein of SARS-CoV Urbani [2]: 0.1
- Binding of antibody 03-018 to looped/cyclic peptides of the N protein of SARS-CoV Urbani [2]: 0.2
- Binding of Control Serum Blood-Bank to Looped peptides [3]: 0.6
- Binding of Control serum Blood-bank to linear peptides [3]: 0.8
- Binding of Control serum LUMC to linear peptides [3]: 0.7
- Binding of Control serum LUMC to looped peptides [3]: 0.5
- Binding of a rabbit serum to linear peptides of protein N of SARS-CoV Urbani (Rabbit serum linear peptides) [4]: 0.2
- Binding of a rabbit serum to looped/cyclic peptides of protein N of SARS-CoV Urbani (Rabbit serum looped peptides) [4]: 0.1

Sequence: TALTQHGKEELRFPR
- Binding of serum 1a to linear peptides of protein N of SARS-CoV Urbani [1]: 0.2
- Binding of serum 1a to looped/cyclic peptides of protein N of SARS-CoV Urbani [1]: 0.4
- Binding of serum 1b to linear peptides of protein N of SARS-CoV Urbani [1]: 0.1
- Binding of serum 1b to looped/cyclic peptides of protein N of SARS-CoV Urbani [1]: 0.3
- Binding of serum 2 to linear peptides of protein N of SARS-CoV Urbani [1]: 0.2
- Binding of serum 2 to looped/cyclic peptides of protein N of SARS-CoV Urbani [1]: 0.6
- Binding of serum 6 to linear peptides of protein N of SARS-CoV Urbani [1]: 0.1
- Binding of serum 6 to looped/cyclic peptides of protein N of SARS-CoV Urbani [1]: 0.5
- Binding of serum 37 to linear peptides of protein N of SARS-CoV Urbani [1]: 0.7
- Binding of serum 37 to looped/cyclic peptides of protein N of SARS-CoV Urbani [1]: 0.8
- Binding of serum 62 to linear peptides of protein N of SARS-CoV Urbani [1]: 0.6
- Binding of serum 62 to looped/cyclic peptides of protein N of SARS-CoV Urbani [1]: 0.6
- Binding of serum London to linear peptides of protein N of SARS-CoV Urbani [1]: 0.5
- Binding of serum London to looped/cyclic peptides of protein N of SARS-CoV Urbani [1]: 0.6
- Binding of serum SARS-green to linear peptides of protein N of SARS-CoV Urbani [1]: 0.4
- Binding of serum SARS-green to looped/cyclic peptides of protein N of SARS-CoV Urbani [1]: 0.7
- Binding of serum SARS-yellow to linear peptides of protein N of SARS-CoV Urbani [1]: 0.5
- Binding of serum SARS-yellow to looped/cyclic peptides of protein N of SARS-CoV Urbani [1]: 0.7
- Binding of antibody 03-018 to linear peptides of the N protein of SARS-CoV Urbani [2]: 0.1
- Binding of antibody 03-018 to looped/cyclic peptides of the N protein of SARS-CoV Urbani [2]: 0.3
- Binding of Control Serum Blood-Bank to Looped peptides [3]: 0.8
- Binding of Control serum Blood-bank to linear peptides [3]: 0.8
- Binding of Control serum LUMC to linear peptides [3]: 0.6
- Binding of Control serum LUMC to looped peptides [3]: 0.8
- Binding of a rabbit serum to linear peptides of protein N of SARS-CoV Urbani (Rabbit serum linear peptides) [4]: 0.1
- Binding of a rabbit serum to looped/cyclic peptides of protein N of SARS-CoV Urbani (Rabbit serum looped peptides) [4]: 0.4
